Experimental data from patent EP0540782B1, “Use of analogues of polyisoprenyl pyrophosphate for inhibiting protein isoprenylation” (NEDERLANDSE ORGANISATIE VOOR …, priority 1991, dated 1993).

Tests used:
squalene synthase = molecular target: T1, squalene synthase (Rattus norvegicus, UniProt Q02769); test: Inhibition of squalene synthase in rat liver microsomal preparations; format: biochemical
T1 construct: squalene synthase in rat liver microsomal preparations; from tissue; host or cells: rat liver microsomes
T1 sequence (Q02769 1-416): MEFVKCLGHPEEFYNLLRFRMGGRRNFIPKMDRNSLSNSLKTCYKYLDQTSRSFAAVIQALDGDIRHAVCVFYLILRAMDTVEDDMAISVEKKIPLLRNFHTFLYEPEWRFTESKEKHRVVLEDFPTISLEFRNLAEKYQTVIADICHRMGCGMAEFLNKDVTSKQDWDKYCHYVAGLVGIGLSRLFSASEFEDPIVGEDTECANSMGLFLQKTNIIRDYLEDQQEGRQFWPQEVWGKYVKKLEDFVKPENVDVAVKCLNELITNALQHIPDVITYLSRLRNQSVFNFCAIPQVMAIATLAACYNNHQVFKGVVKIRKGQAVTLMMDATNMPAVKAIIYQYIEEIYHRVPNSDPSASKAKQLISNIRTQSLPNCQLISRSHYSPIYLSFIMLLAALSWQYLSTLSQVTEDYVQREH

[1] = molecular target: farnesyl: protein transferase (Oryctolagus cuniculus, UniProt G1SFC8+G1T7D9); test: Inhibition of farnesylation of p21ras precursor (H-ras protein) by farnesyl: protein transferase in rabbit reticulocyte lysate, [3H]-FPP incorporation; conditions: read-out: IC50-values, H-ras protein 30 µg/ml, 1 µM [3H]-farnesyl pyrophosphate, 37°C for 30 min
Chain of farnesyl: protein transferase (G1T7D9 entry or part of it, one chain of several): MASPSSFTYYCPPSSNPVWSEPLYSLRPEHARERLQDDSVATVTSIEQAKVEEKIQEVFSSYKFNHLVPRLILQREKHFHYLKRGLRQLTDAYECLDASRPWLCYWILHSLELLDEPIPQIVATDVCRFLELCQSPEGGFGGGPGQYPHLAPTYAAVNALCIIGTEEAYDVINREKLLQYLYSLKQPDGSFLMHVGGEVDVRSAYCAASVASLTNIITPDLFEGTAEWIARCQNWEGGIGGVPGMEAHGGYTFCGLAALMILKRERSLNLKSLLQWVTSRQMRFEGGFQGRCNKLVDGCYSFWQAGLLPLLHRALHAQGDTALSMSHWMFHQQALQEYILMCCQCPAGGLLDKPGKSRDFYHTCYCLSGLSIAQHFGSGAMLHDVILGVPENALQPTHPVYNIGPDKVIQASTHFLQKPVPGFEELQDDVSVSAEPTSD

| Structure (SMILES) | IC50 (squalene synthase) | IC50 [1] |
| --- | --- | --- |
| CC(C)=CCCC(C)=CCCC(C)=CCCP(=O)(O)OP(=O)(O)O [compound 1, farnesylmethylphosphonophosphate] | 480 µM | 4 µM |
| CC(C)=CCCC(C)=CCCC(C)=CCP(=O)(O)OP(=O)(O)O [compound 3, farnesylphosphonophosphate] | 120 µM | < 1 µM |
